In PubChem BioAssay (NCI):
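Tested at 5 concentrations; 48 h exposure; 96-well plates; endpoints linearly interpolated, else capped at highest concentration. GI50 = concentration required for 50% inhibition of growth. TGI: concentration producing complete growth inhibition.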

Columns and labels:
Assay in all cases: NCI tumour cell line growth inhibition, 48 h
OVCAR-4 ovarian = system: OVCAR-4 ovarian
HOP-92 NSCLC = system: HOP-92 NSCLC
HS 578T breast = system: HS 578T breast
MDA-MB-231 breast = system: MDA-MB-231 breast
NCI/ADR-RES ovarian = system: NCI/ADR-RES ovarian
OVCAR-5 ovarian = system: OVCAR-5 ovarian
MDA-MB-435 = system: MDA-MB-435
IGROV1 ovarian = system: IGROV1 ovarian
LOX IMVI melanoma = system: LOX IMVI melanoma
OVCAR-8 ovarian = system: OVCAR-8 ovarian
T-47D breast = system: T-47D breast
NCI-H522 lung = system: NCI-H522 lung
NCI-H226 lung = system: NCI-H226 lung
SW-620 colon = system: SW-620 colon
A549 NSCLC = system: A549 NSCLC
HCC-2998 colon = system: HCC-2998 colon
SK-MEL-2 melanoma = system: SK-MEL-2 melanoma
SK-MEL-28 melanoma = system: SK-MEL-28 melanoma
UACC-257 melanoma = system: UACC-257 melanoma
K-562 leukemia = system: K-562 leukemia
HOP-62 NSCLC = system: HOP-62 NSCLC
ACHN renal = system: ACHN renal
M14 melanoma = system: M14 melanoma
CAKI-1 renal = system: CAKI-1 renal
PC-3 prostate = system: PC-3 prostate
NCI-H23 lung = system: NCI-H23 lung
TK-10 renal = system: TK-10 renal
HCT-116 colon = system: HCT-116 colon
SK-MEL-5 melanoma = system: SK-MEL-5 melanoma
RPMI-8226 leukemia = system: RPMI-8226 leukemia
SF-268 CNS = system: SF-268 CNS
SNB-19 CNS = system: SNB-19 CNS
SN12C renal = system: SN12C renal
KM12 colon = system: KM12 colon
BT-549 breast = system: BT-549 breast
SF-539 CNS = system: SF-539 CNS
SF-295 CNS = system: SF-295 CNS
HT29 colon = system: HT29 colon
SK-OV-3 ovarian = system: SK-OV-3 ovarian
MALME-3M melanoma = system: MALME-3M melanoma
SR leukemia = system: SR leukemia
COLO 205 colon = system: COLO 205 colon
UACC-62 melanoma = system: UACC-62 melanoma
OVCAR-3 ovarian = system: OVCAR-3 ovarian
CCRF-CEM leukemia = system: CCRF-CEM leukemia
786-0 renal = system: 786-0 renal
DU-145 prostate = system: DU-145 prostate
U251 CNS = system: U251 CNS
RXF 393 renal = system: RXF 393 renal
MOLT-4 leukemia = system: MOLT-4 leukemia
A498 renal = system: A498 renal
NCI-H460 lung = system: NCI-H460 lung
UO-31 renal = system: UO-31 renal
MCF7 breast = system: MCF7 breast
EKVX NSCLC = system: EKVX NSCLC
HL-60(TB) leukemia = system: HL-60(TB) leukemia
HCT-15 colon = system: HCT-15 colon

COc1ccc2[nH]cc(-c3nc(N)nnc3-c3cn(C)c4ccc(Br)cc34)c2c1
GI50 (OVCAR-4 ovarian): 4.61 µM | TGI (OVCAR-4 ovarian): 84 µM | GI50 (HOP-92 NSCLC): 2.58 µM | TGI (HOP-92 NSCLC): 17.3 µM | GI50 (HS 578T breast): 2.3 µM | TGI (HS 578T breast): 8.63 µM | GI50 (MDA-MB-231 breast): 4.48 µM | TGI (MDA-MB-231 breast): 28.3 µM | GI50 (NCI/ADR-RES ovarian): 4.34 µM | TGI (NCI/ADR-RES ovarian): 50.1 µM | GI50 (OVCAR-5 ovarian): 4.61 µM | TGI (OVCAR-5 ovarian): 30.6 µM | GI50 (MDA-MB-435): 0.414 µM | TGI (MDA-MB-435): 1.76 µM | GI50 (IGROV1 ovarian): 2.89 µM | TGI (IGROV1 ovarian): 17.1 µM | GI50 (LOX IMVI melanoma): 3.89 µM | TGI (LOX IMVI melanoma): 19.9 µM | GI50 (OVCAR-8 ovarian): 4.37 µM | TGI (OVCAR-8 ovarian): > 100 µM | GI50 (T-47D breast): 3.31 µM | TGI (T-47D breast): 30.1 µM | GI50 (NCI-H522 lung): 2.4 µM | TGI (NCI-H522 lung): 15.4 µM | GI50 (NCI-H226 lung): 4.29 µM | TGI (NCI-H226 lung): 39.8 µM | GI50 (SW-620 colon): 3.85 µM | TGI (SW-620 colon): 22.4 µM | GI50 (A549 NSCLC): 5.59 µM | TGI (A549 NSCLC): 90.3 µM | GI50 (HCC-2998 colon): 6.26 µM | TGI (HCC-2998 colon): 23.7 µM | GI50 (SK-MEL-2 melanoma): 4.02 µM | TGI (SK-MEL-2 melanoma): 20.8 µM | GI50 (SK-MEL-28 melanoma): 6.81 µM | TGI (SK-MEL-28 melanoma): 22.2 µM | GI50 (UACC-257 melanoma): 12.4 µM | TGI (UACC-257 melanoma): 46.2 µM | GI50 (K-562 leukemia): 1.07 µM | TGI (K-562 leukemia): > 100 µM | GI50 (HOP-62 NSCLC): 4.52 µM | TGI (HOP-62 NSCLC): 26.2 µM | GI50 (ACHN renal): 4.94 µM | TGI (ACHN renal): 32 µM | GI50 (M14 melanoma): 2.66 µM | TGI (M14 melanoma): 12.4 µM | GI50 (CAKI-1 renal): 1.29 µM | TGI (CAKI-1 renal): 19.5 µM | GI50 (PC-3 prostate): 2.62 µM | TGI (PC-3 prostate): 22.7 µM | GI50 (NCI-H23 lung): 2.81 µM | TGI (NCI-H23 lung): 13 µM | GI50 (TK-10 renal): 6.45 µM | TGI (TK-10 renal): 60.2 µM | GI50 (HCT-116 colon): 3.7 µM | TGI (HCT-116 colon): 23.7 µM | GI50 (SK-MEL-5 melanoma): 2.58 µM | TGI (SK-MEL-5 melanoma): 8.5 µM | GI50 (RPMI-8226 leukemia): 3.51 µM | TGI (RPMI-8226 leukemia): > 100 µM | GI50 (SF-268 CNS): 5.87 µM | TGI (SF-268 CNS): 36.1 µM | GI50 (SNB-19 CNS): 4.09 µM | TGI (SNB-19 CNS): 20.1 µM | GI50 (SN12C renal): 4.5 µM | TGI (SN12C renal): 22.8 µM | GI50 (KM12 colon): 2.86 µM | TGI (KM12 colon): 18.7 µM | GI50 (BT-549 breast): 4.19 µM | TGI (BT-549 breast): 24.8 µM | GI50 (SF-539 CNS): 3.11 µM | TGI (SF-539 CNS): 12 µM | GI50 (SF-295 CNS): 2.8 µM | TGI (SF-295 CNS): 13 µM | GI50 (HT29 colon): 2.69 µM | TGI (HT29 colon): 12.1 µM | GI50 (SK-OV-3 ovarian): 4.29 µM | TGI (SK-OV-3 ovarian): 32.2 µM | GI50 (MALME-3M melanoma): 3.36 µM | TGI (MALME-3M melanoma): 19.8 µM | GI50 (SR leukemia): 1.19 µM | TGI (SR leukemia): > 100 µM | GI50 (COLO 205 colon): 3.48 µM | TGI (COLO 205 colon): 12.6 µM | GI50 (UACC-62 melanoma): 1.86 µM | TGI (UACC-62 melanoma): 11.5 µM | GI50 (OVCAR-3 ovarian): 2.9 µM | TGI (OVCAR-3 ovarian): 10.6 µM | GI50 (CCRF-CEM leukemia): 3.57 µM | TGI (CCRF-CEM leukemia): > 100 µM | GI50 (786-0 renal): 4.23 µM | TGI (786-0 renal): 25.4 µM | GI50 (DU-145 prostate): 4.23 µM | TGI (DU-145 prostate): 21.8 µM | GI50 (U251 CNS): 3.82 µM | TGI (U251 CNS): 26.4 µM | GI50 (RXF 393 renal): 1.8 µM | TGI (RXF 393 renal): 4.68 µM | GI50 (MOLT-4 leukemia): 3.73 µM | TGI (MOLT-4 leukemia): > 100 µM | GI50 (A498 renal): 2.11 µM | TGI (A498 renal): 6.09 µM | GI50 (NCI-H460 lung): 3.03 µM | TGI (NCI-H460 lung): 15.6 µM | GI50 (UO-31 renal): 2.31 µM | TGI (UO-31 renal): 17.5 µM | GI50 (MCF7 breast): 1.22 µM | TGI (MCF7 breast): 13.5 µM | GI50 (EKVX NSCLC): 3.95 µM | TGI (EKVX NSCLC): 30.2 µM | GI50 (HL-60(TB) leukemia): 3.41 µM | TGI (HL-60(TB) leukemia): > 100 µM | GI50 (HCT-15 colon): 2.86 µM | TGI (HCT-15 colon): 22 µM
